Source: US5496947A, “Quinolone carboxylic acid derivatives” (Dong Wha Pharmaceutical Industrial Co., Ltd., priority 1994, dated 1996)
In brackets after ≈: the same amount, converted by molar mass. Where two headings read alike, the source gives them in different places.

How the values were obtained:
[1] = tested on: Acinetobacter calcoaceticus; assay: MIC, 2-fold dilution method in micro-well plate, A. calcoaceticus; assay type: cell-based
Description: (§1) The in vitro antibiotic activity of the present compound is measured using 2-fold dilution method with a micro-well plate and the bacteria are inoculated in about 10^5 cfu/ml after an overnight culture in a brain-heart infusion (BHI) broth at 37° C. The novel compounds of the present invention are converted to a hydrochloride salt form and diluted with a sterilized distilled water to make 10 mg/ml aqueous solution. After the mother liquor wherein the compound is diluted to the two-fold concentration has been obtained in the form of an aqueous solution, the respective 0.1 ml of diluted liquor is transferred to a well and is inoculated with 0.1 ml of the culture fluid to make about (10^5 -10^6)/2 cfu/ml.
(§2) After cultivation at 37° C., the minimum inhibitory concentration (MIC) is measured and recorded in Table I-V.
Table I-V show the minimum inhibitory concentrations (MIC). […]

[2] = tested on: Citrobacter freundii ATCC 8090; assay: MIC, 2-fold dilution method in micro-well plate, C. freundii; assay type: cell-based
Description: as §1, §2
(§3) Table I-V show the minimum inhibitory concentrations (MIC).
Citrobacter freundii ATCC 8090

[3] = tested on: Enterobacter aerogenes ATCC 13048; assay: MIC, 2-fold dilution method in micro-well plate, E. aerogenes; assay type: cell-based; conditions: Klebsiella aerogenes
Description: as §1, §2, §3
Enterobacter aerogenes ATCC 13048

Enterobacter cloacae = assay: MIC, 2-fold dilution method in micro-well plate, E. cloacae; assay type: cell-based; conditions: read-out: Minimum Inhibitory Concentration
Description: as §1, §2, §3
Enterobacter cloacae ATCC 23355

[4] = tested on: Escherichia coli ATCC 25922; assay: MIC, 2-fold dilution method in micro-well plate, E. coli; assay type: cell-based
Description: as §1, §2, §3
Escherichia coli ATCC 25922

[5] = tested on: Haemophilus influenza ATCC 35056; assay: MIC, 2-fold dilution method in micro-well plate, H. influenzae; assay type: cell-based; conditions: H. influenzae ATCC35056, 37° C.; read-out: Minimum Inhibitory Concentration
Description: as §1, §2, §3
Haemophilus influenza ATCC 35056

[6] = tested on: Klebsiella pneumoniae ATCC 13883; assay: MIC, 2-fold dilution method in micro-well plate, K. pneumoniae; assay type: cell-based
Description: as §1, §2, §3
Klebsiella pneumoniae ATCC 13883

[7] = tested on: Proteus vulgaris ATCC 13315; assay: MIC, 2-fold dilution method in micro-well plate, P. vulgaris; assay type: cell-based
Description: as §1, §2, §3
Proteus vulgaris ATCC 13315

[8] = tested on: Pseudomonas aeruginosa ATCC 27853; assay: MIC, 2-fold dilution method in micro-well plate, P. aeruginosa; assay type: cell-based; conditions: P. aerugirnosa ATCC27853, 37° C., read-out: Minimum Inhibitory Concentration
Description: as §1, §2, §3
Pseudomonas aeruginosa ATCC 27853

[9] = tested on: Salmonella typhimurium ATCC 14028; assay: MIC, 2-fold dilution method in micro-well plate, S. typhimurium; assay type: cell-based; conditions: Salmonella enterica, read-out: Minimum Inhibitory Concentration
Description: as §1, §2, §3
Salmonella typhimurium ATCC 14028

[10] = tested on: Shigella flexneri ATCC 12022; assay: MIC, 2-fold dilution method in micro-well plate, S. flexneri; assay type: cell-based; conditions: S. flexneri ATCC12022, 37° C., read-out: Minimum Inhibitory Concentration
Description: as §1, §2, §3
Shigella flexneri ATCC 12022

[11] = tested on: Shigella sonnei ATCC 25931; assay: MIC, 2-fold dilution method in micro-well plate, S. sonnei; assay type: cell-based; conditions: S. sonnei ATCC25931, 37° C., read-out: Minimum Inhibitory Concentration
Description: as §1, §2, §3
Shigella sonnei ATCC 25931

[12] = tested on: Serratia marcescens ATCC 8100; assay: MIC, 2-fold dilution method in micro-well plate, S. marcescens; assay type: cell-based
Description: as §1, §2, §3
Serratia marcescens ATCC 8100

[13] = tested on: Streptococcus faecalis ATCC 19433; assay: MIC, 2-fold dilution method in micro-well plate, S. faecalis ATCC 19433; assay type: cell-based; conditions: Enterococcus faecalis; S. faecalis ATCC19433, 37° C.; read-out: Minimum Inhibitory Concentration
Description: as §1, §2, §3
Streptococcus faecalis ATCC 19433

[14] = tested on: Streptococcus faecalis ATCC 29212; assay: MIC, 2-fold dilution method in micro-well plate, S. faecalis ATCC 29212; assay type: cell-based; conditions: Enterococcus faecalis; S. faecalis ATCC29212, 37° C.; read-out: Minimum Inhibitory Concentration
Description: as §1, §2, §3
Streptococcus faecalis ATCC 29212

[15] = tested on: Streptococcus pneumoniae ATCC 6303; assay: MIC, 2-fold dilution method in micro-well plate, S. pneumoniae; assay type: cell-based; conditions: S. pneuinoniae ATCC6303, 37° C., read-out: Minimum Inhibitory Concentration
Description: as §1, §2, §3
Streptococcus pneumoniae ATCC 6303

[16] = tested on: Streptococcus pyrogens ATCC 19615; assay: MIC, 2-fold dilution method in micro-well plate, S. pyrogens; assay type: cell-based; conditions: S. pyrogenes ATCC19615, 37° C., read-out: Minimum Inhibitory Concentration
Description: as §1, §2, §3
Streptococcus pyrogens ATCC 19615

[17] = Pharmacokinetic properties in ICR mouse, oral and subcutaneous, Bio-Assay (Agar well method); assay type: in vivo; conditions: 40 mg/kg, average of four tests; for dose excreted: urine, read-out: Urine Recovery
Description: The pharmacokinetic properties are tested by orally administrating and subcutaneously injecting a test compound and a substance for control to a ICR Mouse with 22 g±10% weight, drawing blood after 10, 20, 30, 45, 60, 90, 120, 150, 180 and […] and analyzed by Bio-Assay (Agar well method).

[18] = ATCC8090, read-out: Minimum Inhibitory Concentration
[19] = E. aerogenes ATCC13048, 37° C., read-out: Minimum Inhibitory Concentration
[20] = E. coli ATCC25922, 37° C., read-out: Minimum Inhibitory Concentration
[21] = ATCC13883, read-out: Minimum Inhibitory Concentration
[22] = ATCC13315, read-out: Minimum Inhibitory Concentration
[23] = S. marcescens ATCC8100, 37° C., read-out: Minimum Inhibitory Concentration
[24] = ATCC8100, read-out: Minimum Inhibitory Concentration
[25] = ATCC13048, read-out: Minimum Inhibitory Concentration
[26] = ATCC25922, read-out: Minimum Inhibitory Concentration
[27] = A. calcoaceticus ATCC8090 (as in tables), 37° C., read-out: Minimum Inhibitory Concentration
[28] = K. pneumoniae ATCC13883, 37° C., read-out: Minimum Inhibitory Concentration
[29] = P. vulgaris ATCC13315, 37° C., read-out: Minimum Inhibitory Concentration

Row | SMILES | MIC [1, 18] [µg/mL] | MIC [3, 19] [µg/mL] | MIC (Enterobacter cloacae) [µg/mL] | MIC [4, 20] [µg/mL] | MIC [5] [µg/mL] | MIC [6, 21] [µg/mL] | MIC [7, 22] [µg/mL] | MIC [8] [µg/mL] | MIC [9] [µg/mL] | MIC [10] [µg/mL] | MIC [11] [µg/mL] | MIC [13] [µg/mL] | MIC [14] [µg/mL] | MIC [15] [µg/mL] | MIC [16] [µg/mL] | MIC [2, 18] [µg/mL] | MIC [12, 24] [µg/mL] | MIC [3, 25] [µg/mL] | other results
1 | Cl.O=C(O)c1cn(-c2ccncc2F)c2cc(N3CCNCC3)c(F)cc2c1=O [Example 1, 1-(3-fluoro-4-pyridyl)-6-fluoro-7-(1-piperazinyl)-1,4-dihydro-4-oxoquinoline-3-carboxylic acid hydrochloride] | 0.625 | 1.25 | 0.625 | 1.25 | 0.625 | 0.625 | 0.625 | 0.625 | 0.625 | 0.625 | 0.625 | 5 | 5 | 2.5 | 5 | – | – | – | MIC ([2]; C. freundii ATCC8090, 37° C., read-out: Minimum Inhibitory Concentration): 1.25 µg/mL; MIC [12, 23]: 0.313 µg/mL
2 | CN1CCN(c2cc3c(cc2F)c(=O)c(C(=O)O)cn3-c2ccncc2F)CC1.Cl [Example 2, 1-(3-fluoro-4-pyridyl)-6-fluoro-7-(4-methyl-1-piperazinyl)-1,4-dihydro-4-oxoquinoline-3-carboxylic acid hydrochloride] | 0.625 | 1.25 | 0.625 | 1.25 | 0.625 | 0.625 | 0.625 | 0.625 | 0.625 | 0.625 | 0.625 | 5 | 5 | 10 | 10 | 0.625 | 0.625 | – | –
3 | CC1CN(c2cc3c(cc2F)c(=O)c(C(=O)O)cn3-c2ccncc2F)CCN1.Cl (stereo not shown) [Example 3, 1-(3-fluoro-4-pyridyl)-6-fluoro-7-(3-methyl-1-piperazinyl)-1,4-dihydro-4-oxoquinoline-3-carboxylic acid hydrochloride] | 0.625 | – | 0.625 | – | 1.25 | 0.625 | 0.625 | 0.625 | 0.625 | 2.5 | 0.625 | 2.5 | 5 | 5 | 10 | 1.25 | 0.625 | 1.25 | MIC [4, 26]: 0.625 µg/mL
4 | CC1CN(c2cc3c(cc2F)c(=O)c(C(=O)O)cn3-c2ccncc2F)CC(C)N1.Cl (stereo not shown) [Example 4, 1-(3-fluoro-4-pyridyl)-6-fluoro-7-(3,5-dimethyl-1-piperazinyl)-1,4dihydro-4-oxoquinoline-3-carboxylic acid hydrochloride] | – | – | 0.625 | – | 1.25 | 0.625 | 0.625 | 0.625 | 1.25 | 1.25 | 0.625 | 5 | 5 | 10 | 10 | 1.25 | 1.25 | 1.25 | MIC [1, 27]: 2.5 µg/mL; MIC [4, 26]: 1.25 µg/mL
5 | Cl.NC1CCN(c2cc3c(cc2F)c(=O)c(C(=O)O)cn3-c2ccncc2F)C1 (stereo not shown) [Example 5, 1-(3-fluoro-4-pyridyl)-6-fluoro-7-(3-amino-1-pyrrolidinyl)-1,4-dihydro-4-oxoquinoline-3-carboxylic acid hydrochloride] | 0.313 | 0.156 | 0.313 | 0.156 | 0.313 | – | – | 0.313 | 0.313 | 0.625 | 0.078 | 2.5 | 2.5 | 2.5 | 5 | 0.313 | 0.313 | – | MIC [6, 28]: 0.156 µg/mL; MIC [7, 29]: 0.078 µg/mL
6 | N[C@H]1CCN(c2cc3c(cc2F)c(=O)c(C(=O)O)cn3-c2ccncc2F)C1 [Example 6, 1-(3-fluoro-4-pyridyl)-6-fluoro-7-[(3S)-3-amino-1-pyrrolidinyl]-1,4-dihydro-4-oxoquinoline-3-carboxylic acid] | – | – | – | 0.078 (≈ 0.202 µM) | 0.313 (≈ 0.81 µM) | – | – | 0.156 (≈ 0.404 µM) | – | 0.313 (≈ 0.81 µM) | 0.02 (≈ 0.0518 µM) | 1.25 (≈ 3.24 µM) | 2.5 (≈ 6.47 µM) | 2.5 (≈ 6.47 µM) | 2.5 (≈ 6.47 µM) | 0.313 (≈ 0.81 µM) | – | 0.313 (≈ 0.81 µM) | MIC [1, 27]: 0.156 µg/mL (≈ 0.404 µM); MIC (Enterobacter cloacae; E. cloacae ATCC23355 (as in tables), 37° C.): 0.156 µg/mL (≈ 0.404 µM); MIC [6, 28]: 0.156 µg/mL (≈ 0.404 µM); MIC [7, 29]: 0.078 µg/mL (≈ 0.202 µM); MIC ([9]; S. typhisurium ATCC14028, 37° C.): 0.156 µg/mL (≈ 0.404 µM); MIC [12, 23]: 0.078 µg/mL (≈ 0.202 µM)
7 | CC1COc2c(N3CCN(C)CC3)c(F)cc3c(=O)c(C(=O)O)cn1c23 (stereo not shown) [Ofloxacin, reference compound] | – | – | – | – | – | – | – | – | – | – | – | – | – | – | – | – | – | – | AUC ([17]; blood, po, P.O): 12800 ng·h/mL; Cmax ([17]; blood, po, P.O): 9410 ng/mL; Tmax ([17]; blood, po, P.O): 45 min; bioavailability ([17]; blood, po, P.O): 89.8%; AUC ([17]; blood, sc, S.C): 14200 ng·h/mL; Cmax ([17]; blood, sc, S.C): 12900 ng/mL; Tmax ([17]; blood, sc, S.C): 25.2 min; half-life ([17]; blood, sc, S.C): 25.2 min; dose excreted ([17]; po, P.O): 32.2%; dose excreted ([17]; sc, S.C): 39.1%
